Laboratory results: PMC4090575, “An In Vivo Microdialysis Study of FLZ Penetration through the Blood-Brain Barrier in Normal and 6-Hydroxydopamine Induced Parkinson's Disease Model Rats” (BioMed Research International, 2014)
Where two headings read alike, the source gives them in different places.

Tests used:
[1] = Stability of FLZ in UPLC-MS/MS method validation; type: physicochemical; settings: during preparation, after three freeze/thaw cycles and after storing at −80°C for 45 days
Experimental: Stock solutions of FLZ and IS were prepared separately in methanol at a target concentration of 1 mg/mL and then diluted with methanol to create working solutions of FLZ at concentrations of 1, 3, 10, 30, 100, 300, 1000, 1500, 2500, 5000, 10000, and 15000 ng/mL and IS at concentrations of 10 ng/mL. All solutions were stored in glass tubes at 4°C for less than 2 months until analysis and were protected from light. FLZ calibration standards (0.1, 0.3, 1, 3, 10, 30, 100, 150, 250, 500, 1000, and 1500 ng/mL) were prepared by spiking the blank perfusate with the appropriate working standard solution of FLZ. Quality control samples were prepared using the working solutions from the same stock solution (0.1, 0.3, 1, 10, 100, and 1000 ng/mL), thereby representing the entire range of concentrations.
Assay validation to meet the acceptance criteria was performed according to the bioanalytical method validation guideline (European Medicines Agency Guideline on Bioanalytical Method Validation, July 21, 2011). The assay was validated in terms of specificity, matrix effect, recovery, calibration curve, precision, accuracy (intra- and interday), lower limit of quantification (LLOQ), and stability (autosampler, freeze-thaw, and long-term).

[2] = parameters: method as in PMID 22472186; settings: cited from earlier work
[3] = In vivo microdialysis pharmacokinetics of free FLZ in blood and brain dialysates, with or without zosuquidar·3HCl pretreatment; parameters: species or system rat; settings: for AUC, Brain / AUC: n = 3; for AUC / clearance / half-life / unbound brain-to-blood AUC ratio (Kp,uu): rat, 35 mg/kg; for clearance: read-out: CLz, Blood (converted); for unbound brain-to-blood AUC ratio (Kp,uu): brain dialysate / blood dialysate, BBB penetration ratio of free FLZ, read-out: Ri (AUCbrain/AUCblood)
Experimental: (§1) Rats were divided into four groups (n = 3 animals per group): three normal rats treated with FLZ only (FLZ only-N); three PD rats treated with FLZ only (FLZ only-PD); three normal rats treated with FLZ plus zosuquidar·3HCl (FLZ + ZOSUQ-N); and three PD rats treated with FLZ plus zosuquidar·3HCl (FLZ + ZOSUQ-PD). The system was equilibrated for 1 h after surgery. FLZ was dissolved in a mixture of dimethyl sulfoxide, polyethylene glycol 400, and sodium chloride injection (1 : 4 : 5 (v/v/v)). All rats received FLZ (35 mg/kg) via intravenous injection into the tail vein (with or without pretreatment with zosuquidar·3HCl). Rats in the FLZ + ZOSUQ-N and FLZ + ZOSUQ-PD groups received an i.v. injection of zosuquidar·3HCl (20 mg/kg, dissolved in 20% ethanol-saline) 10 min before FLZ administration. The dose, route of administration, and timing of P-gp inhibition were based on those described in earlier studies. Microdialysis samples were collected from the striatum and the jugular vein at 15 min intervals for 1 h before (blanks) and for 4 h after FLZ administration. The samples were stored at −80°C until they were analysed by ultraperformance liquid chromatography-tandem mass spectrometry (UPLC-MS/MS). At the end of the experiment, the rats were decapitated and the brains were removed for histological verification of probe placement. Data were discarded if the probe placement was outside the target area.
(§2) The microdialysis system comprised a CMA 470 refrigerated fraction collector, a CMA 402 syringe pump, and fluorinated ethylene propylene tubing (CMA, Solna, Sweden). CMA microdialysis probes for the blood (CMA 20, 10 mm in length) and brain (CMA 12, 4 mm in length) were also used. Animals were anaesthetized with urethane (1.4 g/kg, i.p.) before surgery and remained anesthetized throughout the experimental period. The body temperature of each rat was maintained at 37°C until the end of the experiment using a heating pad. The blood microdialysis probe was positioned within the jugular vein toward the right atrium and sutured to the surrounding muscle to prevent it from slipping out. The probe was then perfused with heparinized ringer's solution (1500 U/mL) for 15 min. The microdialysis guide cannula was implanted into the right striatum zone (anterior-posterior: 0.2 mm; lateral: 3.0 mm; dorsal-ventral: 3.5 mm from bregma) and fixed to the skull with stainless steel screws and dental acrylic. The brain microdialysis probe was inserted through the guide cannula.
(§3) In the pilot microdialysis experiment, ringer's solution was perfused through the probe at a flow rate of 1.5 μL/min and the dialysate samples were collected every 15 min from 90 min before until 6 h after dosing with FLZ. In all the other groups, the probes were perfused with ringer's solution containing 4% BSA, with the flow rate set at 1.0 μL/min.
(§4) The relative recovery of FLZ using the microdialysis probe was estimated using a retrodialysis method after sample collection and clearing overnight until there is no drug in the tissue and blood. Perfusates containing FLZ (20 ng/mL for the brain and 200 ng/mL for the blood) were passed separately into the brain and blood through the microdialysis probes at a constant flow rate of 1 μL/min. After a 1-hour stabilization period, the dialysates were collected at 15 min intervals for 1 hour. The concentrations of FLZ in the dialysate (C out) and perfusate (C in) were analysed by UPLC-MS/MS as described in Section 2.7. Recovery (R) was expressed by the following equation: R = 1 − (C out/C in).
(§5) Pharmacokinetic parameters were calculated from the observed data by noncompartmental analysis using the Drug and Statistics for Windows software package (DAS, version 2.0, Chinese Pharmacological Association, China). […]

P-gp = test: as above; parameters: species or system rat; settings: rat, iv, with zosuquidar·3HCl 20 mg/kg i.v. 10 min before FLZ; for AUC / clearance / half-life: 35 mg/kg; for AUC: zosuquidar·3HCl 20 mg/kg i.v. 10 min before FLZ 35 mg/kg i.v., n = 3; for clearance / half-life / unbound brain-to-blood AUC ratio (Kp,uu): zosuquidar·3HCl 20 mg/kg i.v. pretreatment, FLZ 35 mg/kg i.v.; for clearance: read-out: CLz, Blood (converted); for unbound brain-to-blood AUC ratio (Kp,uu): brain dialysate / blood dialysate, read-out: Ri (AUCbrain/AUCblood)
Experimental: as §1, §2, §3, §4, §5

[4] = stated with the material supplied; source not given; cited from earlier work
plasma proteins = system: plasma proteins; parameters: method as in Our previous work; settings: ref Our previous work; cited from earlier work
[5] = FLZ + ZOSUQ-N group relative to FLZ only-N group, normal rats
[6] = FLZ + ZOSUQ-PD group relative to FLZ only-PD group, PD rats
[7] = blood (jugular vein) dialysate, FLZ + ZOSUQ-N: normal rats, blood dialysate
[8] = blood (jugular vein) dialysate, FLZ + ZOSUQ-PD: 6-OHDA PD rats, blood dialysate

## COc1ccc(OC)c(C(=Cc2ccc(O)c(OC)c2)C(=O)NCCc2ccc(O)cc2)c1 [FLZ, N-[2-(4-hydroxy-phenyl)-ethyl]-2-(2,5-dimethoxy-phenyl)-3-(3-methoxy-4-hydroxy-phenyl)-acrylamide]
[1]
  stability of FLZ: remained stable
[2]; 0.25 min postdose, brain homogenate-to-plasma concentration ratio
  increase in FLZ brain-to-plasma ratio with zosuquidar·3HCl pretreatment versus control: about 3.1 fold
[2]
  t 1/2 of FLZ reported previously: about 0.5 h
[3]; FLZ + ZOSUQ-N group compared with FLZ only-N group, normal rats, not statistically significant
  reduction in FLZ blood dialysate AUC: 34%
[3]; [5]
  increase in brain : blood free FLZ AUC ratio: 3 fold
  increase in mean brain dialysate FLZ AUC: 123%
[3]; FLZ + ZOSUQ-N: normal rats, zosuquidar·3HCl 20 mg/kg i.v. pretreatment, FLZ 35 mg/kg i.v., brain dialysate
  AUC, Brain: 324 ± 46∗∗ μg/L × h
[3]; [6]
  decrease in FLZ blood dialysate AUC: 56%
  increase in FLZ brain dialysate AUC: 130%
  increase in brain : blood free FLZ AUC ratio: 4 fold
[3]; FLZ + ZOSUQ-PD: 6-OHDA PD rats, zosuquidar·3HCl 20 mg/kg i.v. pretreatment, FLZ 35 mg/kg i.v., brain dialysate
  AUC, Brain: 333 ± 103∗ μg/L × h
[3]; FLZ only-N: normal rats, FLZ 35 mg/kg i.v., brain (striatum) dialysate
  AUC, Brain: 145 ± 25 µg·h/L
[3]; FLZ only-PD group relative to FLZ only-N group, not statistically significant
  decrease in brain : blood free FLZ AUC ratio: 20%
[3]; FLZ only-PD: 6-OHDA PD rats, FLZ 35 mg/kg i.v., brain (striatum) dialysate
  AUC, Brain: 145 ± 18 µg·h/L
[3]; blood (jugular vein) dialysate, iv, FLZ only-N: normal rats, FLZ 35 mg/kg i.v., blood dialysate, free FLZ
  AUC: 2350 ± 39 ng·h/mL
[3]; blood (jugular vein) dialysate, iv, FLZ only-N: normal rats, FLZ 35 mg/kg i.v., blood dialysate
  clearance: 248 mL/min/kg
[3]; blood (jugular vein) dialysate, iv, FLZ only-N: normal rats, FLZ 35 mg/kg i.v., blood dialysate, read-out: t 1/2, Blood (converted)
  half-life: 1.21 ± 0.22 h
[3]; blood (jugular vein) dialysate, iv, FLZ only-PD: 6-OHDA PD rats, FLZ 35 mg/kg i.v., blood dialysate, free FLZ
  AUC: 3070 ± 621 ng·h/mL
[3]; blood (jugular vein) dialysate, iv, FLZ only-PD: 6-OHDA PD rats, FLZ 35 mg/kg i.v., blood dialysate
  clearance: 195 mL/min/kg
[3]; blood (jugular vein) dialysate, iv, FLZ only-PD: 6-OHDA PD rats, FLZ 35 mg/kg i.v., blood dialysate, read-out: t 1/2, Blood (converted)
  half-life: 1.34 ± 0.03 h
[3]; blood dialysate and brain dialysate, intravenous, present study, both in the blood and brain, free FLZ, read-out: t 1/2 of FLZ (converted)
  half-life: ~1.1 h
[3]; brain (striatum) dialysate, iv, FLZ only-N: normal rats, FLZ 35 mg/kg i.v., brain dialysate, read-out: t 1/2, Brain (converted)
  half-life: 1.15 ± 0.57 h
[3]; brain (striatum) dialysate, iv, FLZ only-PD: 6-OHDA PD rats, FLZ 35 mg/kg i.v., brain dialysate, read-out: t 1/2, Brain (converted)
  half-life: 1.31 ± 0.29 h
[3]; iv, FLZ only-N: normal rats, FLZ 35 mg/kg i.v.
  unbound brain-to-blood AUC ratio (Kp,uu): 0.0617 ± 0.0105
[3]; iv, FLZ only-PD: 6-OHDA PD rats, FLZ 35 mg/kg i.v.
  unbound brain-to-blood AUC ratio (Kp,uu): 0.0492 ± 0.0158
P-gp; [7]
  AUC: 1560 ± 881 ng·h/mL
  clearance: 473 mL/min/kg
P-gp; blood (jugular vein) dialysate, FLZ + ZOSUQ-N: normal rats, blood dialysate, read-out: t 1/2, Blood (converted)
  half-life: 1.11 ± 0.13 h
P-gp; [8]
  AUC: 1330 ± 259 ng·h/mL
  clearance: 447 mL/min/kg
P-gp; blood (jugular vein) dialysate, FLZ + ZOSUQ-PD: 6-OHDA PD rats, blood dialysate, read-out: t 1/2, Blood (converted)
  half-life: 1.43 ± 0.25 h
P-gp; brain (striatum) dialysate, FLZ + ZOSUQ-N: normal rats, brain dialysate, read-out: t 1/2, Brain (converted)
  half-life: 1.04 ± 0.43 h
P-gp; brain (striatum) dialysate, FLZ + ZOSUQ-PD: 6-OHDA PD rats, brain dialysate, read-out: t 1/2, Brain (converted)
  half-life: 1.14 ± 0.27 h
P-gp; FLZ + ZOSUQ-N: normal rats
  unbound brain-to-blood AUC ratio (Kp,uu): 0.248 ± 0.114
P-gp; FLZ + ZOSUQ-PD: 6-OHDA PD rats
  unbound brain-to-blood AUC ratio (Kp,uu): 0.246 ± 0.027
[4]
  lipophilicity: lipophilic
  pKa: 13.75 ± 0.46
  water solubility: poorly water-soluble
Plasma proteins
  binding rate of FLZ to plasma proteins: about 90%
